The values below come from PubChem BioAssay (NCI).

“And” between values parts separate entries of the source, which are not always exact repeats. Equal entries are not always repeated.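 The compound was tested at five concentrations on cells cultured in 96-well plates, with a 48-hour exposure period. GI50 = concentration required for 50% inhibition of growth. At the TGI there is no net growth.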 Where a SMILES comes first, the peptide text is derived from it. [ ]: non-standard residue; d: D form. The star is where a group is joined. ξ: configuration not given here. NMeN = CN[C@@H](CC(N)=O)C(=O)O; NMeV = CN[C@H](C(=O)O)C(C)C; ξNMeV = CNC(C(=O)O)C(C)C; Boc = CC(C)(C)OC(=O)*; ξNMeA = CNC(C)C(=O)O

Some test systems named below: MALME-3M melanoma; NCI/ADR-RES ovarian; M14 melanoma; LOX IMVI melanoma; OVCAR-3 ovarian; A498 renal; MOLT-4 leukemia; CAKI-1 renal; SNB-19 CNS; NCI-H23 lung.
What all share (test): growth of human tumour cells (NCI), 48 h

In the case of `C=C[C@H]1CCC/C=C/[C@@H]2C[C@H](O)C[C@H]2[C@H](O)/C=C/C(=O)O1`, the GI50 in the experiment on MALME-3M melanoma is 0.034 µM; in the experiment on NCI/ADR-RES ovarian, 0.0361 µM; with M14 melanoma, 0.0353 µM; in the experiment with LOX IMVI melanoma, 0.0222 µM; in the experiment with OVCAR-3 ovarian, 0.0242 µM; with A498 renal, 0.015 µM. Moreover, the GI50 was 0.0387 µM in the experiment with MOLT-4 leukemia, 0.035 µM in the experiment on CAKI-1 renal, 0.0542 µM with SNB-19 CNS and 0.0393 µM in the experiment with NCI-H23 lung. Moreover, the TGI was 1.89 µM in the experiment on MALME-3M melanoma; greater than 100 µM in the experiment with NCI/ADR-RES ovarian; greater than 100 µM in the experiment on M14 melanoma; 0.0528 µM in the experiment on LOX IMVI melanoma; 0.0576 µM in the experiment with OVCAR-3 ovarian; 0.0528 µM with A498 renal. Also, the TGI with MOLT-4 leukemia was greater than 100 µM; with CAKI-1 renal, greater than 100 µM; in the experiment with SNB-19 CNS, greater than 100 µM; with NCI-H23 lung, 6 µM.
For the compound `COc1ccc(CNc2c3ccccc3nc3ccc(OC)cc23)cc1`, the GI50 in the experiment with MALME-3M melanoma is 1.89 µM; in the experiment on NCI/ADR-RES ovarian it was 2.22 µM; in the experiment with M14 melanoma, 1.9 µM; with LOX IMVI melanoma, 1.67 µM; in the experiment on OVCAR-3 ovarian it was 2.61 µM; with A498 renal it was 1.69 µM. The GI50 was 2.75 µM in the experiment with MOLT-4 leukemia, 1.76 µM in the experiment on CAKI-1 renal, 4.14 µM with SNB-19 CNS and 1.78 µM in the experiment with NCI-H23 lung. Further, the TGI was 3.72 µM in the experiment on MALME-3M melanoma; 7.52 µM in the experiment with NCI/ADR-RES ovarian; 4.26 µM with M14 melanoma; 3.31 µM in the experiment with LOX IMVI melanoma; 8.68 µM in the experiment on OVCAR-3 ovarian; 3.33 µM with A498 renal. Further, the TGI with MOLT-4 leukemia turned out to be 10.3 µM; with CAKI-1 renal it was 3.72 µM; with SNB-19 CNS, 16 µM; with NCI-H23 lung, 4.71 µM.
For `NC(=O)c1ccc2c(-c3ccnc(NCCCO)n3)c(-c3ccc(F)cc3)nn2c1`, the GI50 in the experiment with MALME-3M melanoma is greater than 25 µM; with NCI/ADR-RES ovarian it was greater than 25 µM; in the experiment with M14 melanoma it was greater than 25 µM; in the experiment on LOX IMVI melanoma it was greater than 25 µM; with OVCAR-3 ovarian it was 18.6 µM; with A498 renal, 7.24 µM. Also, the GI50 with MOLT-4 leukemia, in the experiment on CAKI-1 renal, in the experiment on SNB-19 CNS and with NCI-H23 lung was greater than 25 µM in each case. Besides, the TGI in the experiment with MALME-3M melanoma, in the experiment with NCI/ADR-RES ovarian, in the experiment with M14 melanoma, in the experiment on LOX IMVI melanoma, with OVCAR-3 ovarian and in the experiment on A498 renal was greater than 25 µM in each case. Moreover, the TGI in the experiment with MOLT-4 leukemia, in the experiment with CAKI-1 renal, with SNB-19 CNS and in the experiment on NCI-H23 lung was greater than 25 µM throughout.
Consider `Cc1cc(N2CCN(c3ccnc4cc(Cl)ccc34)CC2)nc(NC2CCCCC2)n1`, for which the GI50 is 1.89 µM in the experiment on MALME-3M melanoma; 1.91 µM with NCI/ADR-RES ovarian; 1.7 µM in the experiment with M14 melanoma; 1.73 µM in the experiment with LOX IMVI melanoma; 1.9 µM with OVCAR-3 ovarian; 0.118 µM in the experiment on A498 renal. For the same compound, the GI50 with MOLT-4 leukemia was 2.38 µM; with CAKI-1 renal, 1.63 µM; with SNB-19 CNS, 2.98 µM; in the experiment with NCI-H23 lung, 3.04 µM. In addition, the TGI in the experiment with MALME-3M melanoma came to 3.83 µM; with NCI/ADR-RES ovarian it was 3.97 µM; in the experiment on M14 melanoma it was 3.36 µM; in the experiment with LOX IMVI melanoma it was 3.19 µM; in the experiment on OVCAR-3 ovarian, 3.9 µM; in the experiment with A498 renal it was 3.21 µM. In addition, the TGI in the experiment on MOLT-4 leukemia amounted to 5.62 µM; with CAKI-1 renal, 3.6 µM; in the experiment on SNB-19 CNS it was 11 µM; in the experiment on NCI-H23 lung, 8.37 µM.
Consider `Cc1ccc(-c2nc(N)nc3c2nnn3Cc2cccc(CO[C@H]3CCOC3)n2)o1`, for which the GI50 is greater than 100 µM in the experiment on MALME-3M melanoma; greater than 100 µM with NCI/ADR-RES ovarian; greater than 100 µM in the experiment on M14 melanoma; greater than 100 µM in the experiment on LOX IMVI melanoma; greater than 100 µM with OVCAR-3 ovarian; 69.9 µM with A498 renal. For the same compound, the GI50 was 98.4 µM in the experiment with MOLT-4 leukemia, greater than 100 µM with CAKI-1 renal, greater than 100 µM in the experiment with SNB-19 CNS and greater than 100 µM in the experiment with NCI-H23 lung. For the same compound, the TGI in the experiment with MALME-3M melanoma, with NCI/ADR-RES ovarian, in the experiment with M14 melanoma, in the experiment on LOX IMVI melanoma, with OVCAR-3 ovarian and with A498 renal was greater than 100 µM throughout. Also, the TGI with MOLT-4 leukemia, in the experiment on CAKI-1 renal, with SNB-19 CNS and in the experiment on NCI-H23 lung was greater than 100 µM in each case.
As to `CC[Si](CC)(CC)OC[C@]1([C@@H]2COC(C)(C)O2)CC=CC(=O)O1`, the GI50 in the experiment on MALME-3M melanoma was 18.1 µM; in the experiment on NCI/ADR-RES ovarian, 32.1 µM; in the experiment on M14 melanoma, 33 µM; in the experiment with LOX IMVI melanoma, 25 µM; in the experiment on OVCAR-3 ovarian, 32.6 µM; with A498 renal it was 20.9 µM. The GI50 with MOLT-4 leukemia was 31.7 µM; in the experiment with CAKI-1 renal, 33.6 µM; in the experiment on SNB-19 CNS it was 34.7 µM; with NCI-H23 lung, 23.3 µM. Also, the TGI with MALME-3M melanoma was 44.4 µM; in the experiment on NCI/ADR-RES ovarian, greater than 100 µM; in the experiment with M14 melanoma, greater than 100 µM; in the experiment on LOX IMVI melanoma, 81 µM; in the experiment on OVCAR-3 ovarian, greater than 100 µM; in the experiment with A498 renal, 75.7 µM. For the same compound, the TGI in the experiment on MOLT-4 leukemia, with CAKI-1 renal, in the experiment on SNB-19 CNS and in the experiment on NCI-H23 lung was greater than 100 µM in each case.
As for `CN1CCCCCC(=N\O)/C(=N/O)CCCCC1`, the TGI in the experiment on MALME-3M melanoma, with NCI/ADR-RES ovarian, in the experiment on M14 melanoma, in the experiment on LOX IMVI melanoma, in the experiment with OVCAR-3 ovarian and in the experiment on A498 renal was greater than 100 µM throughout. The TGI in the experiment with MOLT-4 leukemia, with CAKI-1 renal, with SNB-19 CNS and in the experiment with NCI-H23 lung was greater than 100 µM throughout.
Turning to `COC(=O)C(C)N(C)C(=O)[C@H](CC(N)=O)N(C)C(=O)[C@@H]1CCCN1C(=O)[C@H](C(C)C)N(C)C(=O)C(C(C)C)N(C)C(=O)[C@@H](NC(=O)OC(C)(C)C)C(C)C` (some centres not stated) (Boc-V[ξNMeV][NMeV]P[NMeN][ξNMeA]-OMe), the TGI in the experiment on MALME-3M melanoma is greater than 100 µM; in the experiment with NCI/ADR-RES ovarian, greater than 50 µM; in the experiment on M14 melanoma, greater than 100 µM; with LOX IMVI melanoma, 50 µM and 27 µM; in the experiment with OVCAR-3 ovarian, greater than 100 µM; in the experiment on A498 renal, greater than 100 µM. The TGI with MOLT-4 leukemia is 38.9 µM and > 100 µM; in the experiment on CAKI-1 renal, greater than 100 µM; with SNB-19 CNS, greater than 100 µM; in the experiment with NCI-H23 lung, greater than 50 µM. Further, the GI50 in the experiment on M14 melanoma is greater than 100 µM; with LOX IMVI melanoma, 13.5 µM; in the experiment on OVCAR-3 ovarian, greater than 100 µM; in the experiment with A498 renal, greater than 100 µM; in the experiment on MOLT-4 leukemia it was greater than 100 µM; in the experiment on CAKI-1 renal it was greater than 100 µM. For the same compound, the GI50 in the experiment on SNB-19 CNS was greater than 100 µM.
